# Experimental data: patent US20160279088A1, “COMPOSITION FOR PROMOTING DIFFERENTIATION OR PROLIFERATION OF ERYTHROCYTIC CELLS, CONTAINING MONOACETYL DIACYLGLYCEROL COMPOUND AS ACTIVE INGREDIENT” (ENZYCHEM LIFESCIENCES CORPORATION, priority 2013, published 2016)
# “Also recorded” adds a separate entry of the source.
# Legend:
# [1] = system: cells other than erythroid cells in bone marrow cells; experiment: FACS analysis of other bone marrow cells (B, T, DC, macrophages, neutrophils, NK) of mice treated with EC-18; assay type: in vivo, C57BL mouse; conditions: C57BL mice, EC-18 orally 50 mg/kg for seven days, CD19, CD4, CD8, CD11c, CD11b/F4, CD11b/ly, CD122 antibodies
# Procedure: (§1) Bone marrow cells were isolated from C57BL mice in the following manner. A total of eight 9-week-old C57 BL mice weighting […] were used in the experiment. Three mice were used as control (C1-3). EC-18 was administered orally to five mice at a dose of 50 mg/kg for seven days. Mice were sacrificed by […] and sterilized with 70% alcohol. The tissue of tibia and femur was cut, skin was removed and muscles were taken out. After removing tibia by breaking it in the opposite direction, the sample was washed with 70% alcohol and placed in PBS. After removing the cartilage between femur and tibia, muscles were removed from femur. Femur was separated from pelvis, washed in 70% alcohol and placed in PBS. In order to isolate bone marrow cells from femur, the pelvic end was cut and after filling the 1 ml syringe with culture media, the needle was injected into the cartilage in the knee side to allow bone marrow cells to be pushed out. The culture media containing bone marrow cells was transferred to a tube and the tube was centrifuged. […]
# Bone marrow cells isolated from C57BL mice treated with EC-18 (EC1-EC5, EC-18) and untreated mice (C1-C3, con) were compared. […] Cells were incubated with TER-119, CD19, CD4, CD8, CD11c, CD11b/ly, CD122 antibodies (BD Biosciences-Pharmingen, San Jose, CA, USA) for 1 hour and analyzed using FACscan flow cytometer (Becton Dickinson, San Jose, Calif.).
# erythrocytes = experiment: Concentration of erythrocytes in blood of phenyl hydrazine anemia-induced mice; assay type: in vivo, mouse; conditions: EC-18 orally 5 mg/ml
# Procedure: To observe changes in the level of erythrocytes in mouse blood, anemia-induced mice were prepared by administering phenyl hydrazine (PHZ) intraperitoneally into mice weighing […] at a dose of […]. After administering EC-18 orally to the mice at a dose of 5 mg/ml, blood was collected after 3 days and 13 days. For comparison, a normal group that was not treated with phenyl hydrazine and a control group that was treated with olive oil instead of EC-18 were prepared and blood was collected from the groups after 3 days and 13 days. Collected blood was transferred to EDTA bottle 0.5 ml (Minicollect tube, Greiner bio-one, Austria) and the concentration of erythrocytes (number per pl, unit: 10^6) was measured using a flow cytometer, Auto Hematology Analyzer BC-5300 (Mindray, Shenzhen, China). FIG. 5 is a graph showing the concentration of erythrocytes 3 days after phenyl hydrazine treatment in the normal group, the control group (treated with PHZ and olive oil) and the test group (treated with PHZ and EC-18). FIG. 6 is a graph showing the concentration of erythrocytes 13 days after phenyl hydrazine treatment in the normal group, the control group and the test group.
# erythroid cells = experiment: FACS analysis of erythroid cells (TER-119) in bone marrow cells of mice treated with EC-18; assay type: in vivo, C57BL mouse; conditions: C57BL mice, EC-18 orally 50 mg/kg for seven days; untreated mice 31.2%
# Procedure: as §1, with “out.” for “out. The culture media containing bone marrow cells was transferred to a tube and the tube was centrifuged.”
# Differentiation and proliferation of erythroid cells in bone marrow cells collected from C57BL mice treated with EC-18 were analyzed by using TER-119 antibody (BD Biosciences-Pharmingen, San Jose, Calif., USA), which is a marker of erythroid cells, and FACS. […] Bone marrow cells isolated by the method of Example 2 were stained by incubating with anti-TER119-FITC antibody and analyzed by using FACscan flow cytometer (Becton Dickinson, San Jose, Calif.).
# [2] = sepsis animal model, cecal-ligation-puncture; cited from earlier work
# [3] = GLP toxicity test; cited from earlier work
smiles,measurement,setting,value
"CCCCC/C=C\C/C=C\CCCCCCCC(=O)OC(COC(C)=O)COC(=O)CCCCCCCCCCCCCCC (stereo not drawn) [EC-18, 1-palmitoyl-2-linoleoyl-3-acetylglycerol]",ratio of cells other than erythroid cells in bone marrow cells,[1],maintained same; also recorded: not changed
same,concentration of erythrocytes in blood 3 days after PHZ treatment,"erythrocytes; vs control (PHZ and olive oil), 3 days",mitigates the reduction of erythrocytes
same,concentration of erythrocytes in blood 13 days after PHZ treatment,"erythrocytes; vs normal group, 13 days",slightly higher than the normal level
same,"percentage of erythroid cells in bone marrow cells (TER-119, FACS)",erythroid cells,41.7%
same,survivability ratio of animals,[2],increases survivability ratio
same,toxicity,[3],no toxicity
